From patent publication US20240279207A1, “SUBSTITUTED ACYL SULFONAMIDES FOR TREATING CANCER” (The Broad Institute, Inc., priority 2020, published 2024)
pIC50: −log10 of the molar value. Like-named read-outs stand apart in the source and are kept apart here.

How the values were obtained:
[1] = biological target: T1, Recombinant human His-tagged Kat6a protein (amino acids 194-810) (Homo sapiens, UniProt Q92794); assay: Kat6a activity assay (TR-FRET, acetylation of Histone-H4-derived peptide); assay type: biochemical; conditions: 60 mins at 22° C., 220 nM H4 peptide, 600 nM Acetyl Coenzyme A, read-out: KAT6A - DPF/HAT domain IC50 [mol/l] (arithmetic mean)
T1 construct: Kat6a protein (amino acids 194-810); His
Protocol: Kat6a inhibitory activities of the compounds described in the present invention were quantified using a Fluorescence Resonance Energy Transfer (TR-FRET) assay which measures acetylation of a synthetic, biotinylated Histone-H4-derived peptide by the enzyme.
In this case 50 nl DMSO were used instead of compounds. […] IC50 values were determined by regression analysis based on a 4 parameter equation (minimum, maximum, ICM, Hill; Y=Max+(Min−Max)/(1+(X/ICso) Hill) using the Screener Software (Genedata).

[2] = tested on: ESR1 transcription in MVLN cells; assay: MVLN reporter assay: repression of ESR1 transcription (luciferase signal); assay type: cell-based; conditions: Homo sapiens, luciferase signal after 24 h, read-out: MVLN reporter assay, IC50 [M] (arithmetic mean)
From the text: KAT6A controls transcription of the ESR1 gene in breast cancer cells. Compound treatment that interferes with this mechanism was quantified using MVLN cells. These cells constitutively express the ER and are stably transfected with the luciferase (LUC) reporter gene and the corresponding hormone responsive element derived from the 5′-flanking region of the Xenopus Vitellogenin A2 gene (Pons et al., 1990, Demirpense et al., 1993, Joyeux et al., 1993). The repressive effect on ERα transcription activity of a test chemical is directly related to the luciferase measured in the lysate of treated MVLN cells. […] Each sample was prepared as duplicate and rim wells were excluded. For luciferase signal determination 100 μl of a 1:1 mixture of Steadylite plus (Perkin Elmer; 6016759) and assay medium was added after 24 h for 15 minutes and measured in Victor X3 (Perkin Elmer). To exclude any effects caused by cell loss during the treatment, cell density was determined using Alamar Blue (Invitrogen; DAL1100). Prior to the luciferase measurement 10 μl Alamar Blue were added to each well and the plates were incubated for 2 h in the incubator. Then fluorescence was measured with Victor X3 (Perkin Elmer) at 530 nm/590 nm.

T1 sequence (Q92794 194-810): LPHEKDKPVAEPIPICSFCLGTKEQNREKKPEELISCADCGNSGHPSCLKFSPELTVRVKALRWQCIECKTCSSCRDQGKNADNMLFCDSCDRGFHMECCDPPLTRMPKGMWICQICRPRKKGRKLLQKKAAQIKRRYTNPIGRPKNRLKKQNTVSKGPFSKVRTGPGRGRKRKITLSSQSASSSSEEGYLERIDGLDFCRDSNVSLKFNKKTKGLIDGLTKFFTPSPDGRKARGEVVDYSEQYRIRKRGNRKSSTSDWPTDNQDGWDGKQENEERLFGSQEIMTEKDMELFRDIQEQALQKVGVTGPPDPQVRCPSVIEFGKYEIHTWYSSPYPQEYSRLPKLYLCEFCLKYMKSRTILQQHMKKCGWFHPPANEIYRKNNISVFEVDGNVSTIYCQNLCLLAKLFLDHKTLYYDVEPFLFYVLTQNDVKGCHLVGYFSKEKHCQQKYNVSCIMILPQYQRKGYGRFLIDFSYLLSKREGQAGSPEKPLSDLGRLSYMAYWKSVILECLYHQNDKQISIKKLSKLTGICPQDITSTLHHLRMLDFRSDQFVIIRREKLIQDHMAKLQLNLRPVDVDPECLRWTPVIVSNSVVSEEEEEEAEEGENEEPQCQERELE

Row | SMILES | pIC50 [1] | IC50 ([2]; MVLN, 24 h) | IC50 [2]
1 | Cc1cc(Nc2ccccc2S(=O)(=O)NC(=O)c2cc3c(F)cc(N4CCC4)cc3o2)n(-c2ccccc2)n1 [Example 70, 6-(Azetidin-1-yl)-4-fluoro-N-{2-[(3-methyl-1-phenyl-1H-pyrazol-5-yl)amino]benzene-1-sulfonyl}-1-benzofuran-2-carboxamide] | 6.31 | 1.58e-05 M | –
2 | O=C(NS(=O)(=O)c1ccccc1C(=O)N1CCOCC1)c1cc2c(F)cc(N3CCC3)cc2o1 [Example 73, 6-(Azetidin-1-yl)-4-fluoro-N-[2-(morpholine-4-carbonyl)benzene-1-sulfonyl]-1-benzofuran-2-carboxamide] | 6.98 | 2.56e-06 M | –
3 | CCN(CC)C(=O)Oc1ccccc1S(=O)(=O)NC(=O)c1cc2c(F)cc(N3CCC3)cc2o1 [Example 76, 2-{[6-(Azetidin-1-yl)-4-fluoro-1-benzofuran-2-carbonyl]sulfamoyl}phenyl diethylcarbamate] | 6.95 | – | 2.82e-06 M
4 | CCOc1cccc(OCC(F)F)c1S(=O)(=O)NC(=O)c1cc2c(F)cc(N3CCC3)cc2o1 [Example 81, 6-(Azetidin-1-yl)-N-[2-(2,2-difluoroethoxy)-6-ethoxybenzene-1-sulfonyl]-4-fluoro-1-benzofuran-2-carboxamide] | 7.74 | 1.57e-07 M | –
5 | O=C(NS(=O)(=O)c1cc(Br)ccc1OC(F)(F)F)c1cc2c(F)cc(N3CCC3)cc2o1 [Example 82, 6-(Azetidin-1-yl)-N-[5-bromo-2-(trifluoromethoxy)benzene-1-sulfonyl]-4-fluoro-1-benzofuran-2-carboxamide] | 7.71 | 3.66e-07 M | –
6 | CCCOc1cccc(OC(C)(C)C)c1S(=O)(=O)NC(=O)c1cc2c(F)cc(N3CCC3)cc2o1 [Example 83, 6-(Azetidin-1-yl)-N-(2-tert-butoxy-6-propoxybenzene-1-sulfonyl)-4-fluoro-1-benzofuran-2-carboxamide] | 7.57 | 2.85e-07 M | –
7 | CCC(=O)Nc1cccc2c(S(=O)(=O)NC(=O)c3cc4c(F)cc(N5CCC5)cc4o3)cccc12 [Example 89, 6-(Azetidin-1-yl)-4-fluoro-N-(5-propanamidonaphthalene-1-sulfonyl)-1-benzofuran-2-carboxamide] | 6.57 | > 2e-05 M | –
8 | CCOC(=O)c1cn2cccc(S(=O)(=O)NC(=O)c3cc4c(F)cc(N5CCC5)cc4o3)c2n1 [Example 90, Ethyl 8-{[6-(azetidin-1-yl)-4-fluoro-1-benzofuran-2-carbonyl]sulfamoyl}imidazo[1,2-a]pyridine-2-carboxylate] | 6.52 | > 2e-05 M | –
9 | Cc1nn(C(C)C)cc1S(=O)(=O)NC(=O)c1cc2c(F)cc(N3CCC3)cc2o1 [Example 91, 6-(Azetidin-1-yl)-4-fluoro-N-[3-methyl-1-(propan-2-yl)-1H-pyrazole-4-sulfonyl]-1-benzofuran-2-carboxamide] | 6.42 | 3.08e-07 M | –
10 | O=C(NS(=O)(=O)c1cc(C(F)(F)F)ccc1NCC(F)F)c1cc2c(F)cc(N3CCC3)cc2o1 [Example 92, 6-(Azetidin-1-yl)-N-{2-[(2,2-difluoroethyl)amino]-5-(trifluoromethyl)benzene-1-sulfonyl}-4-fluoro-1-benzofuran-2-carboxamide] | 6.33 | > 2e-05 M | –
11 | NS(=O)(=O)c1cc(COC(=O)c2cc3c(F)cc(N4CCC4)cc3o2)ccc1OC(F)(F)F [Example 93, [3-sulfamoyl-4-(trifluoromethoxy)phenyl]methyl 6-(azetidin-1-yl)-4-fluoro-1-benzofuran-2-carboxylate] | 5.94 | > 2e-05 M | –
12 | CN(C)C(=O)c1cccnc1S(=O)(=O)NC(=O)c1cc2c(F)cc(N3CCC3)cc2o1 [Example 95, 2-{[6-(Azetidin-1-yl)-4-fluoro-1-benzofuran-2-carbonyl]sulfamoyl}-N,N-dimethylpyridine-3-carboxamide] | 5.82 | > 2e-05 M | –
13 | O=C(NS(=O)(=O)c1ccccc1C1=NOCCO1)c1cc2c(F)cc(N3CCC3)cc2o1 [Example 96, 6-(Azetidin-1-yl)-N-[2-(5,6-dihydro-1,4,2-dioxazin-3-yl)benzene-1-sulfonyl]-4-fluoro-1-benzofuran-2-carboxamide] | 5.20 | > 2e-05 M | –
14 | NS(=O)(=O)c1cc(OC(=O)c2cc3c(F)cc(N4CCC4)cc3o2)cc2ccccc12 [Example 98, 4-Sulfamoylnaphthalen-2-yl 6-(azetidin-1-yl)-4-fluoro-1-benzofuran-2-carboxylate] | < 4.70 | > 2e-05 M | –

More lines, main results first:

Row | pIC50 [1] | IC50 ([2]; MVLN, 24 h) | SMILES | IC50 [2]
15 | 6.19 | 1.26e-05 M | N#CCCc1ccc(S(=O)(=O)NC(=O)c2cc3c(F)cc(N4CCC4)cc3o2)cc1 [Example 68, 6-(Azetidin-1-yl)-N-[4-(2-cyanoethyl)benzene-1-sulfonyl]-4-fluoro-1-benzofuran-2-carboxamide] | –
16 | 6.49 | 1.56e-05 M | O=C(NS(=O)(=O)c1ncccc1Br)c1cc2c(F)cc(N3CCC3)cc2o1 [Example 69, 6-(Azetidin-1-yl)-N-(3-bromopyridine-2-sulfonyl)-4-fluoro-1-benzofuran-2-carboxamide] | –
17 | 7.07 | 1.72e-05 M | O=C(NS(=O)(=O)c1cc(O)cc2ccccc12)c1cc2c(F)cc(N3CCC3)cc2o1 [Example 71, 6-(Azetidin-1-yl)-4-fluoro-N-(3-hydroxynaphthalene-1-sulfonyl)-1-benzofuran-2-carboxamide] | –
18 | 6.80 | 1.89e-05 M | CN(C)S(=O)(=O)c1ccc(Cl)c(S(=O)(=O)NC(=O)c2cc3c(F)cc(N4CCC4)cc3o2)c1 [Example 72, 6-(Azetidin-1-yl)-N-[2-chloro-5-(dimethylsulfamoyl)benzene-1-sulfonyl]-4-fluoro-1-benzofuran-2-carboxamide] | –
19 | 7.05 | 2.56e-06 M | COC(=O)/C=C/c1ccccc1S(=O)(=O)NC(=O)c1cc2c(F)cc(N3CCC3)cc2o1 [Example 74, Methyl (2E)-3-(2-{[6-(azetidin-1-yl)-4-fluoro-1-benzofuran-2-carbonyl]sulfamoyl}phenyl)prop-2-enoate] | –
20 | 6.47 | 2.76e-06 M | CCOc1cccc(S(=O)(=O)NC(=O)c2cc3c(F)cc(N4CCC4)cc3o2)c1 [Example 75, 6-(Azetidin-1-yl)-N-(3-ethoxybenzene-1-sulfonyl)-4-fluoro-1-benzofuran-2-carboxamide] | –
21 | 6.68 | 3.45e-06 M | CCS(=O)(=O)c1ccccc1S(=O)(=O)NC(=O)c1cc2c(F)cc(N3CCC3)cc2o1 [Example 77, 6-(Azetidin-1-yl)-N-[2-(ethanesulfonyl)benzene-1-sulfonyl]-4-fluoro-1-benzofuran-2-carboxamide] | –
22 | 7.37 | 5.73e-07 M | CCc1cccc(OC(C)C)c1S(=O)(=O)NC(=O)c1cc2c(F)cc(N3CCC3)cc2o1 [Example 84, 6-(Azetidin-1-yl)-N-{2-ethyl-6-[(propan-2-yl)oxy]benzene-1-sulfonyl}-4-fluoro-1-benzofuran-2-carboxamide] | –
23 | 7.34 | 3.1e-07 M | CCc1cccc(OCc2ccccc2)c1S(=O)(=O)NC(=O)c1cc2c(F)cc(N3CCC3)cc2o1 [Example 85, 6-(Azetidin-1-yl)-N-[2-(benzyloxy)-6-ethylbenzene-1-sulfonyl]-4-fluoro-1-benzofuran-2-carboxamide] | –
24 | 7.26 | 3.33e-07 M | Cc1cccc(OC(C)C)c1S(=O)(=O)NC(=O)c1cc2c(F)cc(N3CCC3)cc2o1 [Example 86, 6-(Azetidin-1-yl)-4-fluoro-N-{2-methyl-6-[(propan-2-yl)oxy]benzene-1-sulfonyl}-1-benzofuran-2-carboxamide] | –
25 | 7.19 | 1.2e-06 M | Cc1ccc(S(=O)(=O)NC(=O)c2cc3c(F)cc(N4CCC4)cc3o2)c2ccccc12 [Example 87, 6-(azetidin-1-yl)-4-fluoro-N-(4-methylnaphthalene-1-sulfonyl)-1-benzofuran-2-carboxamide] | –
26 | 6.90 | 4.45e-07 M | Cc1ccc(F)c(S(=O)(=O)NC(=O)c2cc3c(F)cc(N4CCC4)cc3o2)c1F [Example 88, 6-(Azetidin-1-yl)-N-(2,6-difluoro-3-methylbenzene-1-sulfonyl)-4-fluoro-1-benzofuran-2-carboxamide] | –
27 | 5.82 | > 2e-05 M | Cc1ncccc1S(=O)(=O)NC(=O)c1cc2c(F)cc(N3CCC3)cc2o1 [Example 94, 6-(Azetidin-1-yl)-4-fluoro-N-(2-methylpyridine-3-sulfonyl)-1-benzofuran-2-carboxamide] | –
28 | 4.85 | > 2e-05 M | CN(C)c1ccc(Cl)c(S(=O)(=O)NC(=O)c2cc3c(F)cc(N4CCC4)cc3o2)c1 [Example 97, 6-(Azetidin-1-yl)-N-[2-chloro-5-(dimethylamino)benzene-1-sulfonyl]-4-fluoro-1-benzofuran-2-carboxamide] | –
